The nature of series [1]: Solubility in gastric juice or intestinal juice model fluid (precipitation method using DMSO). It is filed as physicochemical. As to conditions: room temperature. As for the experimental part:
Solubility in Gastric Juice or Intestinal Juice Model Fluid
Measurement was performed by a precipitation method using DMSO. Specifically, each of the dimethyl sulfoxide (DMSO) solutions of the compounds was individually added to 1st fluid for Disintegration Test of Japanese Pharmacopoeia (pH: 1.2) or 2nd fluid for Disintegration Test of Japanese Pharmacopoeia (pH: 6.8), and the mixtures were stirred by shaking at room temperature for 24 hours. Subsequently, insoluble substances in each mixture were removed by filtration, and the UV absorption of each filtrate was measured. The obtained values were individually applied to the calibration curves of the compounds prepared in advance to calculate the concentrations of the compounds dissolved (μg/mL).

[2] abbreviates: pH 1.2, simulated gastric fluid, kinetic from dmso stock, 1st fluid for Disintegration Test of Japanese Pharmacopoeia (pH: 1.2), read-out: Solubility (μg/mL) 1st fluid.
[3] abbreviates: pH 6.8, kinetic from dmso stock, 2nd fluid for Disintegration Test of Japanese Pharmacopoeia (pH: 6.8), read-out: Solubility (μg/mL) 2nd fluid.

Structures are written as SMILES. In brackets after ≈: the same amount, converted by molar mass. Where two headings read alike, the source gives them in different places. Where only a bound is given, the exact number is not on record here.

Take `COc1cc(OCc2ccc(C(F)(F)F)nc2)ccc1-c1cnc(C2CC(F)(F)C2)[nH]1` [Example 4]: the melting point lay in the range of 167 to 169 °C. In addition, the solubility at 24 h in series [1] (setting [2]) was 86.6 µg/mL (≈ 197 µM). For the same compound, the solubility at 24 h in series [1] (setting [3]) was 0.9 µg/mL (≈ 2.05 µM).
For `COc1cc(OCc2ncccc2C#N)ccc1-c1cnc(C2CCC(F)(F)CC2)[nH]1` [Example 7], in that order: 69 to 89 °C, 84 µg/mL (≈ 198 µM) and 40.2 µg/mL (≈ 94.7 µM).
`COc1cc(OCc2cccc(C#N)n2)ccc1-c1cnc(C2CCC(F)(F)CC2)[nH]1` [Example 8] gave a melting point of 195 to 197 °C. Moreover, the solubility at 24 h in series [1] (setting [2]) is 83.6 µg/mL (≈ 197 µM). Further, the solubility at 24 h in series [1] (setting [3]) was less than 0.3 µg/mL.
The like results for `COc1cc(OCc2ccc(C(F)(F)F)nc2)ccc1-c1c[nH]c(-c2ccc(F)cn2)n1` [Example 26] were, in that order, 176 to 178 °C, 8.7 µg/mL (≈ 19.6 µM) and 1.3 µg/mL (≈ 2.93 µM).
For `COc1cc(-c2nc(-c3ccc(Cl)cn3)[nH]c2C)ccc1OCc1ccc(C(F)(F)F)nc1` [Example 29], in that order: 267 to 269 °C, 3 µg/mL (≈ 6.32 µM) and 0.6 µg/mL (≈ 1.26 µM).
Take `COc1cc(-c2nc(-c3ccc(Cl)nc3)[nH]c2C)ccc1OCc1ccc(C(F)(F)F)cn1` [Example 30]: the melting point was 228 to 230 °C (dec.). Further, the solubility at 24 h in series [1] (setting [2]) was 24 µg/mL (≈ 50.5 µM). The solubility at 24 h in series [1] (setting [3]) is 0.6 µg/mL (≈ 1.26 µM).
For `COc1cc(-c2nc(-c3ccc(Cl)cn3)[nH]c2C)ccc1OCc1ccc(C(F)(F)F)cn1` [Example 31], in that order: 168 to 171 °C, 7.7 µg/mL (≈ 16.2 µM) and 1.6 µg/mL (≈ 3.37 µM).
The like results for `COc1cc(OCc2cc(C(F)(F)F)ccn2)ccc1-c1c[nH]c(-c2ccc(Cl)nc2)n1` [Example 37] were, in that order, 216 to 217 °C, 5.6 µg/mL (≈ 12.2 µM) and 0.6 µg/mL (≈ 1.3 µM).
The like results for `COc1cc(OCc2ccc(C(F)(F)F)cn2)ccc1-c1c[nH]c(-c2ccc(F)cn2)n1` [Example 41] were, in that order, 152 to 154 °C, 23.3 µg/mL (≈ 52.4 µM) and 1.3 µg/mL (≈ 2.93 µM).
`COc1cc(OCc2ccc(C(F)(F)F)nc2)ccc1-c1c[nH]c(C2CCCCC2)n1` [Example 53] showed a melting point of 62 to 73 °C. For the same compound, the solubility at 24 h in series [1] (setting [2]) is more than 86 µg/mL. The solubility at 24 h in series [1] (setting [3]) stood at 4.6 µg/mL (≈ 10.7 µM).
For `COc1cc(OCc2ccc(C(F)(F)F)cn2)ccc1-c1c[nH]c(-c2ccc(N3CCCC3)nc2)n1` [Example 58], in that order: 227 to 231 °C (dec.), 94.4 µg/mL (≈ 191 µM) and 16.5 µg/mL (≈ 33.3 µM).
For `COc1cc(OCc2cccc(C#N)n2)ccc1-c1c[nH]c(-c2ccc(Cl)nc2)n1` [Example 60], in that order: 235 to 239 °C (dec.), 8.8 µg/mL (≈ 21.1 µM) and 1.1 µg/mL (≈ 2.63 µM).
The like results for `COc1cc(OCc2ccc(C(F)(F)F)cn2)ccc1-c1c[nH]c(C2CCC(F)(F)CC2)n1` [Example 61] were, in that order, 232 to 237 °C, more than 101 µg/mL and 1.6 µg/mL (≈ 3.42 µM).
In the case of `COc1cc(-c2c[nH]c(C3CCC(F)(F)CC3)n2)ccc1OCc1ccc(C(F)(F)F)cn1` [Example 62], the melting point was more than 250 °C. Also, the solubility at 24 h in series [1] (setting [2]) is more than 101 µg/mL. For the same compound, in series [1] (setting [3]), the solubility at 24 h amounted to 1.3 µg/mL (≈ 2.78 µM).
The like results for `COc1cc(-c2c[nH]c(C3CCC(F)(F)CC3)n2)cc(OC)c1OCc1ccc(C(F)(F)F)cn1` [Example 63] were, in that order, 155 to 168 °C (dec.), 82.2 µg/mL (≈ 165 µM) and 12.5 µg/mL (≈ 25.1 µM).
For `COc1cc(-c2c[nH]c(C3CCC(C)CC3)n2)ccc1OCc1ccc(C(F)(F)F)cn1` (stereo not drawn) [Example 64], in that order: 147 to 150 °C, 56.2 µg/mL (≈ 126 µM) and 2.6 µg/mL (≈ 5.84 µM).
The like results for `COc1cc(-c2c[nH]c(C34CC5CC(CC(C5)C3)C4)n2)cc(OC)c1OCc1ccc(C(F)(F)F)cn1` [Example 66] were, in that order, 144 to 168 °C, 56.9 µg/mL (≈ 111 µM) and 0.9 µg/mL (≈ 1.75 µM).
The compound `COc1cc(-c2c[nH]c(C34CC5CC(CC(C5)C3)C4)n2)ccc1OCc1ccc(C(F)(F)F)cn1` [Example 67] gave a melting point of 209 to 217 °C. In addition, the solubility at 24 h in series [1] (setting [2]) was 93.5 µg/mL (≈ 193 µM). Also, the solubility at 24 h in series [1] (setting [3]) turned out to be 0.4 µg/mL (≈ 0.827 µM).
In turn, `COc1cc(-c2c[nH]c(C3CCC(C(C)(C)C)CC3)n2)ccc1OCc1ccc(C(F)(F)F)cn1` (stereo not drawn) [Example 69] registered a melting point of 159 to 161 °C. For the same compound, the solubility at 24 h in series [1] (setting [2]) is 5.3 µg/mL (≈ 10.9 µM). Further, the solubility at 24 h in series [1] (setting [3]) was 1.3 µg/mL (≈ 2.67 µM).
The compound `COc1cc(-c2c[nH]c(C3CCCCCC3)n2)cc(OC)c1OCc1ccc(C(F)(F)F)cn1` [Example 74] gave a melting point of 177 to 179 °C. For the same compound, in series [1] (setting [2]), the solubility at 24 h was 53.6 µg/mL (≈ 113 µM). For the same compound, the solubility at 24 h in series [1] (setting [3]) was 1.8 µg/mL (≈ 3.79 µM).
The like results for `COc1cc(OCc2ccc(C(F)(F)F)cn2)ccc1-c1c[nH]c(C2CCCCCC2)n1` [Example 75] were, in that order, 202 to 204 °C (dec.), 83.1 µg/mL (≈ 187 µM) and 1 µg/mL (≈ 2.24 µM).
The like results for `COc1cc(-c2c[nH]c(C3CCCCC3)n2)cc(OC)c1OCc1ccc(C(F)(F)F)cn1` [Example 76] were, in that order, 183 to 186 °C, less than 8.5 µg/mL and 1 µg/mL (≈ 2.17 µM).
For `COc1cc(-c2c[nH]c(C3CCCC3)n2)ccc1OCc1ccc(C(F)(F)F)cn1` [Example 78], in that order: 207 to 210 °C, more than 83 µg/mL and 20.6 µg/mL (≈ 49.3 µM).
Regarding `COc1cc(-c2c[nH]c(C3CCCCC3)n2)ccc1OCc1ccc(C(F)(F)F)cn1` [Example 81], the melting point was in the range of 135 to 145 °C. In addition, in series [1] (setting [2]), the solubility at 24 h was 78.7 µg/mL (≈ 182 µM). In addition, in series [1] (setting [3]), the solubility at 24 h is 5.8 µg/mL (≈ 13.4 µM).
For `COc1cc(-c2c[nH]c(C3CC3)n2)ccc1OCc1ccc(C(F)(F)F)cn1` [Example 82], in that order: 153 to 155 °C, more than 78 µg/mL and 41.1 µg/mL (≈ 106 µM).
The like results for `COc1cc(OCc2ccc(Br)cc2F)ccc1-c1c[nH]c(C2CC2)n1` [Example 83] were, in that order, 157 to 160 °C, 27.8 µg/mL (≈ 66.6 µM) and 2.9 µg/mL (≈ 6.95 µM).
As for `COc1cc(-c2c[nH]c(-c3ccc(C)nc3)n2)ccc1OCc1ccc(C(F)(F)F)cn1` [Example 85], the melting point is 201 to 203 °C (dec.). The solubility at 24 h in series [1] (setting [2]) was 85.4 µg/mL (≈ 194 µM). The solubility at 24 h in series [1] (setting [3]) amounted to 1 µg/mL (≈ 2.27 µM).
The like results for `COc1cc(OCc2ccc(Br)cc2F)ccc1-c1c[nH]c(-c2ccc(C)nc2)n1` [Example 86] were, in that order, 218 to 220 °C (dec.), 73.5 µg/mL (≈ 157 µM) and less than 0.3 µg/mL.
For `COc1cc(-c2c[nH]c(-c3ccccn3)n2)ccc1OCc1ccc(C(F)(F)F)cn1` [Example 87], in that order: 217 to 220 °C, 39.4 µg/mL (≈ 92.4 µM) and 0.7 µg/mL (≈ 1.64 µM).
For `COc1cc(OCc2ccc(C(F)(F)F)cn2)ccc1-c1c[nH]c(-c2ccccn2)n1` [Example 88], in that order: 214 to 216 °C, 54.1 µg/mL (≈ 127 µM) and 0.5 µg/mL (≈ 1.17 µM).
Compound `COc1cc(OCc2ccc(Br)cc2F)ccc1-c1c[nH]c(-c2ccccn2)n1` [Example 91] registered a melting point of 143 to 146 °C. The solubility at 24 h in series [1] (setting [2]) was 42.8 µg/mL (≈ 94.2 µM). Further, the solubility at 24 h in series [1] (setting [3]) worked out at 0.6 µg/mL (≈ 1.32 µM).
The compound `COc1cc(OCc2ccc(F)cc2F)ccc1-c1[nH]c(-c2ccc(Cl)nc2)nc1Cl` [Example 244] registered a melting point of 173 to 177 °C.
The same measure, in the same setting: the same measure for `COc1cc(OCc2ncc(Br)cc2F)ccc1-c1[nH]c(-c2ccc(Cl)nc2)nc1Br` [Example 250]: 174 to 179 °C; for `COc1cc(OCc2ncc(Br)cc2F)ccc1-c1[nH]c(-c2ccc(Cl)nc2)nc1Cl` [Example 251]: 189 to 191 °C; for `COc1cc(OCc2cnccc2C(F)(F)F)ccc1-c1[nH]c(-c2ccc(F)nc2)nc1Cl` [Example 257]: 133 to 153 °C.
The same measure, in the same setting: the same measure for `COc1cc(OCc2cc(C(F)(F)F)ccn2)ccc1-c1[nH]c(-c2ccc(F)nc2)nc1Br` [Example 269]: 179 to 181 °C; for `COc1cc(OCc2ccnc(C(F)(F)F)c2)ccc1-c1[nH]c(-c2ccc(F)nc2)nc1Cl` [Example 272]: 236 to 238 °C.
On the same count and under the same terms, the same measure for `COc1cc(OCc2cccc(C(F)(F)F)n2)ccc1-c1[nH]c(-c2ccc(Cl)nc2)nc1Cl` [Example 282]: 190 to 193 °C; for `COc1cc(OCc2ncc(Cl)cc2F)ccc1-c1[nH]c(-c2ccc(F)nc2)nc1Cl` [Example 283]: 172 to 175 °C; for `COc1cc(OCc2ccc(Br)cc2F)ccc1-c1[nH]c(-c2ccc(F)nc2)nc1Cl` [Example 284]: 183 to 185 °C.
`COc1cc(OCc2ccc(Cl)cc2F)ccc1-c1[nH]c(-c2ccc(F)nc2)nc1Cl` [Example 286] returned a melting point of 163 to 166 °C.
Still for that read-out and setting: next, `COc1cc(OCc2ccc(C(F)(F)F)nc2)ccc1-c1c(Cl)nc(-c2ccc(Cl)nc2)n1C` [Example 307]: 149 to 151 °C; `COc1cc(OCc2ccc(C(F)(F)F)nc2)ccc1-c1[nH]c(-c2ccc(F)nc2)nc1F` [Example 320]: 194 to 196 °C.
